The text below walks through data of patent publication US20210300924A1, “5-[6-[[3-(4,5,6,7-TETRAHYDROPYRAZOLO[4,3-C]PYRIDIN-1-YL)AZETIDIN-1-YL]METHYL]MORPHOLIN-4-YL]QUINOLINE-8-CARBONITRILE DERIVATIVES AND SIMILAR COMPOUNDS AS TLR7-9 ANTAGONISTS FOR TREATING SYSTEMIC LUPUS ERYTHEMATOSUS” (Hoffmann-La Roche Inc., priority 2018, published 2021).

One series deals with T1, TLR9 (Homo sapiens, UniProt Q9NR96).
T1 sequence (Q9NR96 26-1032): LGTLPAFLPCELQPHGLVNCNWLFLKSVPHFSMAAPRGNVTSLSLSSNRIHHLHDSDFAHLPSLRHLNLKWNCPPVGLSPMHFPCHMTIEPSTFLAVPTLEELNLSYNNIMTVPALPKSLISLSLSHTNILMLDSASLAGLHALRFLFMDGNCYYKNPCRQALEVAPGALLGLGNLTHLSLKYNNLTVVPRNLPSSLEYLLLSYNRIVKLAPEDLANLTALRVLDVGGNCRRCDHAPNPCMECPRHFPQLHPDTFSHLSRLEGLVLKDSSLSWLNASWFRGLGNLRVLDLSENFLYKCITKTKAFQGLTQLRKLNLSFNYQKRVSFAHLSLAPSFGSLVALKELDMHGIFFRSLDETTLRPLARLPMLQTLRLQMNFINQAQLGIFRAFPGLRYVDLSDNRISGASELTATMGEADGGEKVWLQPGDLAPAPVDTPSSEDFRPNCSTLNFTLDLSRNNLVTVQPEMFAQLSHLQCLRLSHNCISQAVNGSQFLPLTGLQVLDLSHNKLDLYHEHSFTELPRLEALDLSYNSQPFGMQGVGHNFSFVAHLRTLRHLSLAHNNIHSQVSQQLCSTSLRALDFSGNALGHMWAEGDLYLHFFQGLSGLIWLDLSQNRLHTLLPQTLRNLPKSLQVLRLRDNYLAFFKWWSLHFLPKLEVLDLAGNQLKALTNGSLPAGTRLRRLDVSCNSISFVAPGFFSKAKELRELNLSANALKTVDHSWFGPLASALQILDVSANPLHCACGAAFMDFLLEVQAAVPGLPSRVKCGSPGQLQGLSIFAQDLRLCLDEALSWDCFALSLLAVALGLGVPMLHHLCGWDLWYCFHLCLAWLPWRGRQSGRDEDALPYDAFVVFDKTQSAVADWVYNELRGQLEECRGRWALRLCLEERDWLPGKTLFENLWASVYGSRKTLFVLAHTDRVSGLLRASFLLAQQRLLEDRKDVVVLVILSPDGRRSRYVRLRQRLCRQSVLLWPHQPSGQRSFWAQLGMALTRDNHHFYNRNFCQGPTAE
As to the kind of experiment: Human PBMC cell-based assay. Also on record: endogenous in cells; host or cells: human PBMC from healthy donor whole blood. Conditions: CpG ODN 2216 stimulation, overnight, cytokine readout, read-out: hPBMC/TLR9 IC50. The text has this: Human PBMC Cell-Based Assay
Unlike the HEK reporter cell lines, human peripheral blood mononuclear cell (PBMC) represents primary human immune cells in blood mainly consisting of lymphocytes, monocytes, and dendritic cells. These cells express TLR7, TLR8, or TLR9, and therefore are natural responders to respective ligand stimulation. Upon activation of these TLRs, PBMCs secrete similar cytokines and chemokines in vitro and in vivo, and therefore the in vitro potency of a TLR7/8/9 antagonist in human PBMC is readily translatable to its pharmacodynamics response in vivo.
Human peripheral blood mononuclear cells (PBMC) were isolated from freshly-drawn lithium-heparinized (Lithium Heparin Plus blood Collection tube, BD Vacutainer®) healthy donor whole blood by density gradient (Ficoll-Paque™ PLUS, GE Healthcare life Sciences). Briefly, […] was diluted with 25 mL PBS (without Ca^2+, Mg^2+) in a 50 mL conical tube with porous barrier (Leucosep tube, Greiner bio-one), where 15.5 mL Ficoll-Paque was under laid after spinning. Tubes were centrifuged for 20 minutes at 800×g (1946 rpm) with the brake in the off position, and PBMC were collected from the buffy coat. Cells were then washed twice in PBS, and red blood cells were lysed by suspension in 2 mL (Red Blood Cell Lysis Buffer, Alfa Aesar) for 5-10 minutes at room temperature. After a final wash in PBS, PBMC were resuspended at a final concentration of 2×10^6 cells/mL in RPMI-1640 media with GlutaMAX™ (Gibco) supplemented with 10% Fetal Bovine Serum (Sigma) and plated at 150 μL/well (3×10^5 cells/well) in tissue culture treated round bottom 96-well plates (Corning Incorporated). Antagonist compounds (compounds of this invention) solubilized and serial diluted in 100% DMSO were added in duplicate to cells to yield a final concentration of 1% DMSO (v/v). PBMC were incubated with antagonist compounds for 30 minutes at 37° C., 5% CO2 before adding various TLR agonist reagents in 48 μL complete media per well as follows (final concentrations indicated): CpG ODN 2216 (InvivoGen) at […] for TLR9, ORN 06/LyoVec (InvivoGen) at 1 μg/mL for TLR8 and R848 (InvivoGen) at 1 μg/mL for TLR7 and TLR8. PBMC were incubated overnight at 37° C. with 5% CO2. Cell culture supernatants were collected, and levels of various human cytokines were assessed by Luminex assay (ProcartaPlex™ Multiplex Immunoassay, Invitrogen) or ELISA procedure according to the manufacturer's recommended protocol (eBioscience, ThermoFisher Scientific). Viability of the cells was also checked with Cell Viability Assay (CellTiter Glo® Luminescent Cell Viability Assay, Promega).

Another series addresses T2, hERG channel (Homo sapiens, UniProt Q12809).
T2 construct: expressed in transfected cells; host or cells: CHO (Chinese hamster ovary), CHOhERG
The experiment in a line: hERG channel inhibition assay (patch-clamp, CHOhERG cells). Format: cell-based. The settings on record: for IC50 / IC20: CHOhERG cells, whole-cell patch-clamp; for IC20: human, CHO cells stably expressing hERG (CHOhERG cells); for hERG IC20/TLR7 IC50 / hERG IC20/TLR8 IC50 / hERG IC20/TLR9 IC50: safety ratio, >30 suggests sufficient window. As to the method:
hERG Channel Inhibition Assay:
The hERG K^+ channels were cloned in humans and stably expressed in a CHO (Chinese hamster ovary) cell line. CHOhERG cells were used for patch-clamp (voltage-clamp, whole-cell) experiments. Cells were stimulated by a voltage pattern to activate hERG channels and conduct hERG currents (rapid delayed outward rectifier potassium current of the hERG channel). After the cells were stabilized for a few minutes, the amplitude and kinetics of IKhERG were recorded at a stimulation frequency of 0.1 Hz (6 bpm). Thereafter, the test compound was added to the preparation at increasing concentrations. For each concentration, an attempt was made to reach a steady-state effect, usually, this was achieved within 3-10 min at which time the next highest concentration was applied. The amplitude and kinetics of IKhERG are recorded in each concentration of the drug which were compared to the control values (taken as 100%). (references: Redfern W S, Carlsson L, Davis A S, Lynch W G, MacKenzie I, Palethorpe S, Siegl P K, Strang I, Sullivan A T, Wallis R, Camm A J, Hammond T G. 2003; Relationships between preclinical cardiac electrophysiology, clinical QT interval prolongation and torsade de pointes for a broad range of drugs: evidence for a provisional safety margin in drug development. Cardiovasc. Res. 58:32-45, Sanguinetti MC, Tristani-Firouzi M. 2006; hERG potassium channels and cardiac arrhythmia. Nature 440:463-469, Webster R, Leishman D, Walker D. 2002; Towards a drug concentration effect relationship for QT prolongation and torsades de pointes. Curr. Opin. Drug Discov. Devel. 5:116-26).
(In general: Block of hERG is tested as a sign of cardiac risk.)

SMILES strings stand for the structures. Some results are limits rather than exact numbers.

T2 sequence (Q12809 whole entry): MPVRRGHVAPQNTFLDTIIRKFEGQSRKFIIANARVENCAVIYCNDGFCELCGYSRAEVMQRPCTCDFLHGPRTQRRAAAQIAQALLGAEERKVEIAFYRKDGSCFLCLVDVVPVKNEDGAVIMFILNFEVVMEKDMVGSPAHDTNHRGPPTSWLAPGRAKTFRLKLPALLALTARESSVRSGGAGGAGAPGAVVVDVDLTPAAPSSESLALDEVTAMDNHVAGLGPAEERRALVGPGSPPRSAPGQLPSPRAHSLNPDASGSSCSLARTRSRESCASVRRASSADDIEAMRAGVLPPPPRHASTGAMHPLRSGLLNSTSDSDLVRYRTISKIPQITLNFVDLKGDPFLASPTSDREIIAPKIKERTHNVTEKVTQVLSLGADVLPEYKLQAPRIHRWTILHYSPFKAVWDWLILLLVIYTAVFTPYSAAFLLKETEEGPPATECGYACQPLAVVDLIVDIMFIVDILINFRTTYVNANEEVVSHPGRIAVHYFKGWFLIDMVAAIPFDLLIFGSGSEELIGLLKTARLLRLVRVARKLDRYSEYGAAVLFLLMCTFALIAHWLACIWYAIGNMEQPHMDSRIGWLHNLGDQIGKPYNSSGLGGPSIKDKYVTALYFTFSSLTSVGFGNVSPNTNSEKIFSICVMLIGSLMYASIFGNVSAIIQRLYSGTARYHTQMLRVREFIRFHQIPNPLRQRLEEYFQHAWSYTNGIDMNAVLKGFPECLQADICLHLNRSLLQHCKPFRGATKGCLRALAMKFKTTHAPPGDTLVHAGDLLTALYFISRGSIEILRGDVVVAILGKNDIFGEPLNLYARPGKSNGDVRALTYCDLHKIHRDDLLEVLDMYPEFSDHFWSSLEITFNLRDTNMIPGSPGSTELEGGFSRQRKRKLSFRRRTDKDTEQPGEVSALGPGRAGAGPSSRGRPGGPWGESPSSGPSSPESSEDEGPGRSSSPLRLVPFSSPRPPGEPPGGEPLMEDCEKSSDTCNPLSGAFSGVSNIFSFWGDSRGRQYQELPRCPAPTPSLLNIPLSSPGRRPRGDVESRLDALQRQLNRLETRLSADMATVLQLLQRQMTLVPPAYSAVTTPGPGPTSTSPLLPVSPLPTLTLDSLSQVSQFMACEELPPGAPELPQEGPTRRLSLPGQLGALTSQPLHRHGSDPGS

With `C[C@@H]1CN(c2ccc(C#N)c3ncccc23)C[C@H](CN2CC(n3cc4c(n3)CNCC4)C2)O1` [Example 4, 5-[(2R,6S)-2-methyl-6-[[3-(4,5,6,7-tetrahydropyrazolo[3,4-c]pyridin-2-yl)azetidin-1-yl]methyl]morpholin-4-yl]quinoline-8-carbonitrile], the IC50 at TLR9 stood at 198 nM. For the same compound, at hERG channel, the IC50 was more than 20000 nM, the IC20 is more than 10000 nM, the “hERG IC20/TLR7 IC50” value was more than 1136.4 and the “hERG IC20/TLR8 IC50” value is listed as more than 1162.8. For the same compound, the “hERG IC20/TLR9 IC50” value on hERG channel was more than 314.5.
Consider `C[C@@H]1Cc2cn(C3CN(C[C@H]4CN(c5ccc(C#N)c6ncccc56)C[C@@H](C)O4)C3)nc2CN1` (single isomer, unassigned) [Example 30], for which, on TLR9, the IC50 was found to be 162 nM. Moreover, on hERG channel, the IC50 was more than 20000 nM, the IC20 was more than 10000 nM, the “hERG IC20/TLR7 IC50” value was more than 2083.3 and the “hERG IC20/TLR8 IC50” value is recorded as more than 735.3. The “hERG IC20/TLR9 IC50” value at hERG channel was more than 175.7.
Turning to `C[C@@H]1CN(c2ccc(C#N)c3ncccc23)C[C@H](CN2CC(n3ncc4c3CNCC4)C2)O1` [Example 3, 5-[(2R,6S)-2-methyl-6-[[3-(4,5,6,7-tetrahydropyrazolo[3,4-c]pyridin-1-yl)azetidin-1-yl]methyl]morpholin-4-yl]quinoline-8-carbonitrile], on TLR9, the IC50 was found to be 118 nM. On hERG channel, the IC50 was more than 20000 nM, the IC20 was more than 10000 nM, the “hERG IC20/TLR7 IC50” value is more than 2901.3 and the “hERG IC20/TLR8 IC50” value is more than 1739.2. Moreover, the “hERG IC20/TLR9 IC50” value on hERG channel is recorded as more than 194.9.
In the case of `C[C@@H]1CN(c2ccc(C#N)c3ncccc23)C[C@H](CN2CC(n3cc4c(n3)CN[C@@H](C)C4)C2)O1` (single isomer, unassigned) [Example 29], the IC50 at TLR9 is 115 nM. Besides, at hERG channel, the IC50 is more than 20000 nM, the IC20 was more than 10000 nM, the “hERG IC20/TLR7 IC50” value is more than 1265.8 and the “hERG IC20/TLR8 IC50” value was more than 877.2. In addition, the “hERG IC20/TLR9 IC50” value on hERG channel is more than 138.3.
Consider `Cc1c2c(nn1C1CN(C[C@H]3CN(c4ccc(C#N)c5ncccc45)C[C@@H](C)O3)C1)CCNC2` [Example 13, 5-[(2R,6S)-2-methyl-6-[[3-(3-methyl-4,5,6,7-tetrahydropyrazolo[4,3-c]pyridin-2-yl)azetidin-1-yl]methyl]morpholin-4-yl]quinoline-8-carbonitrile], for which the IC50 at TLR9 was determined as 119 nM. Moreover, at hERG channel, the IC50 was more than 20000 nM, the IC20 was more than 10000 nM, the “hERG IC20/TLR7 IC50” value is recorded as more than 694.4 and the “hERG IC20/TLR8 IC50” value was more than 222.2. For the same compound, the “hERG IC20/TLR9 IC50” value at hERG channel is given as more than 84.5.
As for `C[C@@H]1CN(c2ccc(C#N)c3ncccc23)C[C@H](CN2CC(n3cc4c(n3)[C@H](C)CNC4)C2)O1` (single isomer, unassigned) [Example 25], on TLR9, the IC50 came to 346 nM.
Same read-out and setting: the same measure for `C[C@@H]1CN(c2ccc(C#N)c3ncccc23)C[C@H](CN2CC(n3cc4c(n3)CCN[C@@H]4C)C2)O1` [Example 21, 5-[(2R,6S)-2-methyl-6-[[3-[(4R)-4-methyl-4,5,6,7-tetrahydropyrazolo[4,3-c]pyridin-2-yl]azetidin-1-yl]methyl]morpholin-4-yl]quinoline-8-carbonitrile]: 92 nM.
As to `C[C@@H]1CN(c2ccc(C#N)c3ncccc23)C[C@H](CN2CC(n3cc4c(n3)CN(C)CC4)C2)O1` [Example 5, 5-[(2R,6S)-2-methyl-6-[[3-(6-methyl-5,7-dihydro-4H-pyrazolo[3,4-c]pyridin-2-yl)azetidin-1-yl]methyl]morpholin-4-yl]quinoline-8-carbonitrile], at TLR9, the IC50 was 318 nM. Further, at hERG channel, the IC50 was more than 20000 nM, the IC20 was more than 10000 nM, the “hERG IC20/TLR7 IC50” value is given as more than 2857.1 and the “hERG IC20/TLR8 IC50” value is more than 1653.6. In addition, the “hERG IC20/TLR9 IC50” value on hERG channel is on record as more than 73.1.
On to `Cc1nn(C2CN(C[C@H]3CN(c4ccc(C#N)c5ncccc45)C[C@@H](C)O3)C2)c2c1CNCC2` [Example 12, 5-[(2R,6S)-2-methyl-6-[[3-(3-methyl-4,5,6,7-tetrahydropyrazolo[4,3-c]pyridin-1-yl)azetidin-1-yl]methyl]morpholin-4-yl]quinoline-8-carbonitrile], for which the IC50 at TLR9 came to 92 nM. On hERG channel, the IC50 was more than 20000 nM, the IC20 is more than 10000 nM, the “hERG IC20/TLR7 IC50” value is reported as more than 666.7 and the “hERG IC20/TLR8 IC50” value is more than 226.8. Also, the “hERG IC20/TLR9 IC50” value at hERG channel is recorded as more than 127.6.
`C[C@@H]1Cc2c(cnn2C2CN(C[C@H]3CN(c4ccc(C#N)c5ncccc45)C[C@@H](C)O3)C2)CN1` [Example 16, 5-[(2R,6S)-2-methyl-6-[[3-[(6R)-6-methyl-4,5,6,7-tetrahydropyrazolo[4,3-c]pyridin-1-yl]azetidin-1-yl]methyl]morpholin-4-yl]quinoline-8-carbonitrile]: on TLR9, the IC50 is 84 nM. In addition, at hERG channel, the IC50 is more than 20000 nM, the 20% effect concentration (IC20) is more than 10000 nM, the “hERG IC20/TLR7 IC50” value was more than 2381.0 and the “hERG IC20/TLR8 IC50” value is reported as more than 641.0. Moreover, the “hERG IC20/TLR9 IC50” value at hERG channel is listed as more than 129.0.
As to `C[C@@H]1CN(c2ccc(C#N)c3ncccc23)C[C@H](CN2CC(n3ncc4c3CN[C@@H](C)C4)C2)O1` (single isomer, unassigned) [Example 27], the IC50 on TLR9 was 81 nM.

As usually defined, the IC20 is the concentration at which the effect reaches the 20% level.
